Data reported in patent US7919480B2, “Polymers having covalently bound antibiotic agents” (Ethicon, Inc., priority 2007, dated 2011).

Tested on: S. aureus ATCC 6538
Assay: log reduction assay (Example 4)
Assay type: cell-based
Protocol: Sample of ONM covalently bound to ORC (ORC-ONM-CV) from example 3 were tested for its in vitro efficacy by log reduction assay. In the log reduction assay, the test articles (squares of about 4.0 mg/piece) were challenged with about 1-2×10e4 CFU bacteria on the surface of the test articles for one hour. To facilitate the test of efficacy on surface of the test articles with covalent bound ONM, the inoculum was delivered in 10 ul/item, the small volume relative to the test articles allowed complete absorption of the inoculum by the test articles such that the inoculum localized on surfaces of the test articles. The inoculum was prepared in 20× potassium phosphate buffer, which maintained pH of the test articles close to neutral. The antimicrobial efficacy of ORC at neutral pH will be minimized, so that the log reduction would indicate the antibacterial efficacy of ONM rather than ORC. After the challenge, the test article was immersed in saline with shaking to remove survival bacteria and the survival bacteria were measured by plate count. The plate counts were conducted in trypticase soy agar and incubated at 37° C. for 24 hours.

Sequence: POLYQUATERNIUM 1 [ONM control]
- log reduction (log CFU of inoculum − log CFU of treated, 1 h challenge): 4.2 log
- log CFU (surviving bacteria after 1 h challenge with about 1-2x10e4 CFU, neutral pH): 0.3 log CFU
